Test results from patent publication US10160747B2, “Compounds and methods for kinase modulation, and indications therefor” (Plexxikon Inc., priority 2016, dated 2018).

Columns and labels:
[1] = target: T1, c-KIT (Homo sapiens, UniProt P10721); assay: c-KIT recombinant enzyme kinase assay (AlphaScreen); assay type: biochemical; details: 100 ATP, 8 pt
T1 construct: purchased Millipore 14-559K
How it was run: (§1)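 Enzyme plus biotinylated poly(Glu4-Tyr) substrate (30 nM) mixed with compound, then ATP added. Donor beads went in for 20 min at room temperature, then PY20 acceptor beads for 60 min. AlphaScreen read; ATP was 10 μM for FLT3-ITD/D835Y and 100 μM for c-KIT.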

[2] = target: T2, FLT3-D835Y (Homo sapiens, UniProt P36888, D835Y); assay: FLT3-D835Y recombinant enzyme kinase assay (AlphaScreen); assay type: biochemical; details: 8 pt, GMean
T2 construct: purchased Invitrogen PV3967
T2 sequence (P36888 27-993 D835Y): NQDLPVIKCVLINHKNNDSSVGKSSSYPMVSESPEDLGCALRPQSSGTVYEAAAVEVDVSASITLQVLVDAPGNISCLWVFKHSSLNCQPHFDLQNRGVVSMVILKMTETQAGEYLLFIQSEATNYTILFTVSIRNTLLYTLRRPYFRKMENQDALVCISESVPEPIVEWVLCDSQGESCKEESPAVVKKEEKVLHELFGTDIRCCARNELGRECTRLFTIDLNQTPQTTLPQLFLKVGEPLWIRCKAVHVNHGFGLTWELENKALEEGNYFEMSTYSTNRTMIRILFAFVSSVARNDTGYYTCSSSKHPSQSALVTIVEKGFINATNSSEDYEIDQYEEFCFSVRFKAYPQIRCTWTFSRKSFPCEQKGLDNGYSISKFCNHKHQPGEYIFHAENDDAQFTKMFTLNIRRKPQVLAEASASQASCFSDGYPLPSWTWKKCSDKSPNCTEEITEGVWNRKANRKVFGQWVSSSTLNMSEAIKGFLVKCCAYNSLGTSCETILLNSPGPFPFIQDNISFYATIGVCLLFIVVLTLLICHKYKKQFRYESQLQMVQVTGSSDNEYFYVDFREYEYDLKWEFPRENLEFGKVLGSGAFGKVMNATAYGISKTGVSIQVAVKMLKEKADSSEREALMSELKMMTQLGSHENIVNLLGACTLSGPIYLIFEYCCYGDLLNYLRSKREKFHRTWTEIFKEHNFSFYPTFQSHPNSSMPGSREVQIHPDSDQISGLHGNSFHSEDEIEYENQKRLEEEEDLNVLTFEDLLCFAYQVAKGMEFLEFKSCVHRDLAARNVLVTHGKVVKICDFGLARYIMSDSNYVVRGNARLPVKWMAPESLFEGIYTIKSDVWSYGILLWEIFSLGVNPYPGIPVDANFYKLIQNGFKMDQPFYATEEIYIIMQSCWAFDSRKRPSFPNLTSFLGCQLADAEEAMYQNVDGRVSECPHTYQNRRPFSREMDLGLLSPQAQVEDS
How it was run: as §1

T1 sequence (P10721 26-976): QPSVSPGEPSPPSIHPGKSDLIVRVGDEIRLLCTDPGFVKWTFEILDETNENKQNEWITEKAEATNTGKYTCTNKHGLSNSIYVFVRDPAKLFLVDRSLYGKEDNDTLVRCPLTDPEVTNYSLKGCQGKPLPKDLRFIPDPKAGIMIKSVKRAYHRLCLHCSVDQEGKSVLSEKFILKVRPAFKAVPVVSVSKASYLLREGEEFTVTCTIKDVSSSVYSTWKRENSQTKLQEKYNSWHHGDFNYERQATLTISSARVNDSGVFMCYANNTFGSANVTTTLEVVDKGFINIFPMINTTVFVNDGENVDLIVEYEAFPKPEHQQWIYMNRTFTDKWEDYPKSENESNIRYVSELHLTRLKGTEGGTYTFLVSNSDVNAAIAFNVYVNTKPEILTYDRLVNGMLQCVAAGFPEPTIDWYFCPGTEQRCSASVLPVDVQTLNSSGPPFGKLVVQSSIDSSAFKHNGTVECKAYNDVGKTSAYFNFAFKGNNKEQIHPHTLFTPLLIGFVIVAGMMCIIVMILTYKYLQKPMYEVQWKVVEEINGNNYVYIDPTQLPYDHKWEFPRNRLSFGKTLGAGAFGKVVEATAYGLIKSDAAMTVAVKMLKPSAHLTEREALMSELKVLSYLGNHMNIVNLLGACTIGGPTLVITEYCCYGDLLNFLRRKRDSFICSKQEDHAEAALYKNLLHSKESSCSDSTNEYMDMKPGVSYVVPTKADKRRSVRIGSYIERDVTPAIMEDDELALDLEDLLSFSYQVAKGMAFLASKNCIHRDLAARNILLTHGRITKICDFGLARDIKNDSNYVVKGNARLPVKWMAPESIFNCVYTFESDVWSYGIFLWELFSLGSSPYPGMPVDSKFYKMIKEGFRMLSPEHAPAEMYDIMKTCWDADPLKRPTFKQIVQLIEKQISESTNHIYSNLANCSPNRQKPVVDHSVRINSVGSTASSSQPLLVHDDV

Row | IC50 [1] | IC50 [2] | SMILES
1 | 0.0001 to 10 µM | 0.0001 to 10 µM | Cn1cc(Nc2ncc(-c3ccc(CC(=O)Nc4cncc(C(F)(F)F)c4)c(F)c3)cn2)cn1 [Compound P-0084, 2-[2-fluoro-4-[2-[(1-methylpyrazol-4-yl)amino]pyrimidin-5-yl]phenyl]-N-[5-(trifluoromethyl)-3-pyridyl]acetamide]
2 | 0.0001 to 10 µM | 0.0001 to 10 µM | Cn1cc(Nc2ncc(-c3ccc(CC(=O)Nc4cncc(C(C)(F)F)c4)c(F)c3)cn2)cn1 [Compound P-0090, N-[5-(1,1-difluoroethyl)-3-pyridyl]-2-[2-fluoro-4-[2-[(1-methylpyrazol-4-yl)amino]pyrimidin-5-yl]phenyl]acetamide]

Further lines, the compound ahead of its results:

Row | SMILES | IC50 [1] | IC50 [2]
3 | Cn1cc(Nc2ncc(-c3ccc(CC(=O)Nc4cc(C(F)(F)F)ccn4)c(F)c3)cn2)cn1 [Compound P-0082, 2-[2-fluoro-4-[2-[(1-methylpyrazol-4-yl)amino]pyrimidin-5-yl]phenyl]-N-[4-(trifluoromethyl)-2-pyridyl]acetamide] | 0.0001 to 10 µM | 0.0001 to 10 µM
4 | Cn1cc(Nc2ncc(-c3ccc(CC(=O)Nc4ccnc(C(F)(F)F)c4)c(F)c3)cn2)cn1 [Compound P-0083, 2-[2-fluoro-4-[2-[(1-methylpyrazol-4-yl)amino]pyrimidin-5-yl]phenyl]-N-[2-(trifluoromethyl)-4-pyridyl]acetamide] | 0.0001 to 10 µM | 0.0001 to 10 µM
5 | COc1cncc(NC(=O)Cc2ccc(-c3cnc(Nc4cnn(C)c4)nc3)cc2F)c1 [Compound P-0086, 2-[2-fluoro-4-[2-[(1-methylpyrazol-4-yl)amino]pyrimidin-5-yl]phenyl]-N-(5-methoxy-3-pyridyl)acetamide] | 0.0001 to 10 µM | 0.0001 to 10 µM
6 | Cn1cc(Nc2ncc(-c3ccc(CC(=O)NCc4ccc(C(F)(F)F)nc4)c(F)c3)cn2)cn1 [Compound P-0087, 2-[2-fluoro-4-[2-[(1-methylpyrazol-4-yl)amino]pyrimidin-5-yl]phenyl]-N-[[6-(trifluoromethyl)-3-pyridyl]methyl]acetamide] | 0.0001 to 10 µM | 0.0001 to 10 µM
7 | COc1ncc(NC(=O)Cc2ccc(-c3cnc(Nc4cnn(C)c4)nc3)cc2F)cc1C(F)(F)F [Compound P-0089, 2-[2-fluoro-4-[2-[(1-methylpyrazol-4-yl)amino]pyrimidin-5-yl]phenyl]-N-[6-methoxy-5-(trifluoromethyl)-3-pyridyl]acetamide] | 0.0001 to 10 µM | 0.0001 to 10 µM
